This note sets out measurements from ChEMBL document CHEMBL5291721, “A preclinical secondary pharmacology resource illuminates target-adverse drug reaction associations of marketed drugs” (Nat Commun, 2023).

The target of assay [1] is T1, Adenosine receptor A1 (Homo sapiens, UniProt P30542).
T1 sequence (P30542 whole entry): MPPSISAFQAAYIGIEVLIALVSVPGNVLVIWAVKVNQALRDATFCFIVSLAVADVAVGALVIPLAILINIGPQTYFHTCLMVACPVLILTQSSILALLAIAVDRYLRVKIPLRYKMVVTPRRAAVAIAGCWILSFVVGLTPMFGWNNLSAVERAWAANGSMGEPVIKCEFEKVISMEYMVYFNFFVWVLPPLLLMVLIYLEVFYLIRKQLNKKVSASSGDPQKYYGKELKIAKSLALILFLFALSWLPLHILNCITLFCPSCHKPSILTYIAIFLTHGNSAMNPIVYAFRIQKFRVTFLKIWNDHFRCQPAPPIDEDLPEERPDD

Assay [2] has as its target T2, Gastrin/cholecystokinin type B receptor (Homo sapiens, UniProt P32239).
T2 sequence (P32239 whole entry): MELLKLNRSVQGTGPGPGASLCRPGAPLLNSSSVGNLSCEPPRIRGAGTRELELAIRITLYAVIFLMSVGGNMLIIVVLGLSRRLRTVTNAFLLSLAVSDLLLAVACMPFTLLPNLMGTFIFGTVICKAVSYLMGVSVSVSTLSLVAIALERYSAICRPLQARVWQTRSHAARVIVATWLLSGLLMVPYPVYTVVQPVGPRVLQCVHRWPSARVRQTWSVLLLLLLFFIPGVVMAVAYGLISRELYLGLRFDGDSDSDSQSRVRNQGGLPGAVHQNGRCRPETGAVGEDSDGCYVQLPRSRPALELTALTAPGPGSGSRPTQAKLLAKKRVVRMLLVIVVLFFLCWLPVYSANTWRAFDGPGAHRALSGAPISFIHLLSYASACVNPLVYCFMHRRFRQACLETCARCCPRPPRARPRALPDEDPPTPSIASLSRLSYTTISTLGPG

Assay [3] has as its target Vasopressin V2 receptor (Homo sapiens, UniProt P30518).
Assay [4] addresses T3, Type-1 angiotensin II receptor (Homo sapiens, UniProt P30556).
T3 sequence (P30556 whole entry): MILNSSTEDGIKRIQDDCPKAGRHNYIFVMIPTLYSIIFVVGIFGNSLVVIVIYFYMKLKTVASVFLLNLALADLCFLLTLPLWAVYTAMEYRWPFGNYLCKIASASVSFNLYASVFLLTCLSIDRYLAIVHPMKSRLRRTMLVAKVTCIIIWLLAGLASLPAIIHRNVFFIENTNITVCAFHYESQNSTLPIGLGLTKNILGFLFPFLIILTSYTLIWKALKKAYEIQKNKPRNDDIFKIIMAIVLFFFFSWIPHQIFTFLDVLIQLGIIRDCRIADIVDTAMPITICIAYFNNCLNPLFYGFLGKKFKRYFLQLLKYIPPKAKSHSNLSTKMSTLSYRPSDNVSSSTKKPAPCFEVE

Assay [5] addresses T4, 5-hydroxytryptamine receptor 2C (Homo sapiens, UniProt P28335).
T4 sequence (P28335 whole entry): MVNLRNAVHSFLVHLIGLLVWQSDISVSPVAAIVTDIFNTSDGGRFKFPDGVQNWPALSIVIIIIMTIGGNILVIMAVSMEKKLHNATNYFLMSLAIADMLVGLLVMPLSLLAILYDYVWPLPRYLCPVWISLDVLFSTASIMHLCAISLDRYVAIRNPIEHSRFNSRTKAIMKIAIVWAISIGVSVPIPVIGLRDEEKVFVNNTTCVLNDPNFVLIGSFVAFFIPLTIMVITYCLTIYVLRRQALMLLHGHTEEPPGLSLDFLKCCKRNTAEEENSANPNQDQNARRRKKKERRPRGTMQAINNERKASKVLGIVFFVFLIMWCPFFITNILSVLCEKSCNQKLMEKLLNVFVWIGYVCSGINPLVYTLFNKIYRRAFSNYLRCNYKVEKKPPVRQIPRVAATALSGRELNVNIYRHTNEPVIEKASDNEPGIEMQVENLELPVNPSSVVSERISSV

The target in assay [6] is Histamine H3 receptor (Homo sapiens, UniProt Q9Y5N1).
Sequence of Histamine H3 receptor (Q9Y5N1 whole entry): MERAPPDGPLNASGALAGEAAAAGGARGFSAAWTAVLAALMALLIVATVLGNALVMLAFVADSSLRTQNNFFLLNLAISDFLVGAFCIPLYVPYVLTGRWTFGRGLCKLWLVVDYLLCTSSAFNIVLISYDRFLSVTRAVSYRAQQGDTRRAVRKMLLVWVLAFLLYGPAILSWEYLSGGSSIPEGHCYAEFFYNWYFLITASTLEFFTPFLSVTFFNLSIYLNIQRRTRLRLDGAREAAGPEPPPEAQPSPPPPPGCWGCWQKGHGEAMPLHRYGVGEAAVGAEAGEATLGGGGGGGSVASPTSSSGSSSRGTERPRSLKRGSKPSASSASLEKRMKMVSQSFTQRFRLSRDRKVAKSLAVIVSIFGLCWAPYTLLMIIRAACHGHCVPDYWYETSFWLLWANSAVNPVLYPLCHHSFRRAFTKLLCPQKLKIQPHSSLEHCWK
Assay [7] concerns the target T5, 5-hydroxytryptamine receptor 3A (Homo sapiens, UniProt P46098).
T5 sequence (P46098 whole entry): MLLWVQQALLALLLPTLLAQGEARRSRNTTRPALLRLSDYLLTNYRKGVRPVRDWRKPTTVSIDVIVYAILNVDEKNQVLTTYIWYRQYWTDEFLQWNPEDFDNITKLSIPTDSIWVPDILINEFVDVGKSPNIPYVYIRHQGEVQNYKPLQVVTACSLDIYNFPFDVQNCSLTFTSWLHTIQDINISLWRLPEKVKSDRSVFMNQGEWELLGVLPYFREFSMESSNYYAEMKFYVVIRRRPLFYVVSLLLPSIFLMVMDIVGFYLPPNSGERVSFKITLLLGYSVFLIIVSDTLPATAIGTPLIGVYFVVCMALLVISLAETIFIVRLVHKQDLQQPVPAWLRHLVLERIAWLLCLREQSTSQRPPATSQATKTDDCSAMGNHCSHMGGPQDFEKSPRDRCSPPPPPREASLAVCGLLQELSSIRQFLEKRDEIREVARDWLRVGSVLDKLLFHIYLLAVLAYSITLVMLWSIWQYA
In kind it is functional.

The target in assay [8] is Vasopressin V1a receptor (Homo sapiens, UniProt P37288).
Sequence of Vasopressin V1a receptor (P37288 whole entry): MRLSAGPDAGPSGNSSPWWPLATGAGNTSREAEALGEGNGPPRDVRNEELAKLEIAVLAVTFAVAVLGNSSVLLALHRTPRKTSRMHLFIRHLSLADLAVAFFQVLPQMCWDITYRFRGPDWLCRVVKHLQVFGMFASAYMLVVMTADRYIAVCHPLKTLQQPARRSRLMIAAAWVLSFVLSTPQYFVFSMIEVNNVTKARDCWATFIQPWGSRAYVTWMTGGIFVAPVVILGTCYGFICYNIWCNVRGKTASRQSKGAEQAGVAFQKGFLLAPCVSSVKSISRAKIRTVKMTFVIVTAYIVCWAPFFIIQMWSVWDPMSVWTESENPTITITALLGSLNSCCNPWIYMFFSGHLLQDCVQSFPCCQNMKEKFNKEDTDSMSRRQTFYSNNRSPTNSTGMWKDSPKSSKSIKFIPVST
Assay [9] addresses Cannabinoid receptor 1 (Homo sapiens, UniProt P21554). Type of assay: functional, cell-based.
Further: assay procedure not described here.

Sequence of Cannabinoid receptor 1 (P21554 whole entry): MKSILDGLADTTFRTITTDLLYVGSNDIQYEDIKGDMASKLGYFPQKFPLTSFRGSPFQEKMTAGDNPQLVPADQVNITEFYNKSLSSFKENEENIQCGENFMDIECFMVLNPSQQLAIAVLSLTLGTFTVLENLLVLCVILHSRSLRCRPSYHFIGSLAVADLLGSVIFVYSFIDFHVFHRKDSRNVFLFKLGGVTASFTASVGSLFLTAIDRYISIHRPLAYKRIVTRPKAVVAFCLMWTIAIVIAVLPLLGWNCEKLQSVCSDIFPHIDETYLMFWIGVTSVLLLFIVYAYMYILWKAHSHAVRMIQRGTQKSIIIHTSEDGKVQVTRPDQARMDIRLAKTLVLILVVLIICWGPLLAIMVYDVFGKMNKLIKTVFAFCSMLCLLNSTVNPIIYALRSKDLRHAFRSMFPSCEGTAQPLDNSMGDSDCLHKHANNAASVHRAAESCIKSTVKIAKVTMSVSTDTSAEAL
Sequence of Vasopressin V2 receptor (P30518 whole entry): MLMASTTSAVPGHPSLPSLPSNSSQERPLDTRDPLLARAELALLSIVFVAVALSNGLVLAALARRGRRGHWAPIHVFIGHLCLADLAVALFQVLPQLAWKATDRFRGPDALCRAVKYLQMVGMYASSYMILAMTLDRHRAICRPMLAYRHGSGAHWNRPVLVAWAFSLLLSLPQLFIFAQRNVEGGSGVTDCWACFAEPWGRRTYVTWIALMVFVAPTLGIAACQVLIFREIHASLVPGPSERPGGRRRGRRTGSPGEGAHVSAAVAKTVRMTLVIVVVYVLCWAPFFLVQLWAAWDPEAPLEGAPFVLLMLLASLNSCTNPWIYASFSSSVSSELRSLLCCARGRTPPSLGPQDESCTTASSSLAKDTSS

As usually defined, the AC50 is the concentration giving half of the maximal activity seen. Higher therefore signals weaker potency. In the case of `COc1ccc(/C=C/C(=O)Nc2ccccc2C(=O)O)cc1OC`, the AC50 in assay [1], in assay [2], in assay [3], in assay [4], in assay [5] and in [6] was over 30 µM throughout. Further, the AC50 in assay [7] is over 30 µM.
Regarding `NCCCC(O)(P(=O)(O)O)P(=O)(O)O` [ALENDRONIC ACID], the AC50 in assay [1] was over 30 µM; in [2] it was over 30 µM; in assay [3], over 30 µM; in assay [4], over 30 µM; in assay [5], over 30 µM; in assay [8], over 10 µM. Also, the half-maximal activity concentration (AC50) in assay [6] and in assay [7] was over 10 µM in each case.
Take `Nc1ccc(C(=O)O)c(O)c1` [AMINOSALICYLIC ACID]: the AC50 in assay [1], in assay [9], in assay [2], in [3], in assay [4] and in assay [5] was over 30 µM each time. In addition, the AC50 in assay [6] and in [7] was over 30 µM each time.
For the molecule `COc1cc(OC)c(C(=O)CCCN2CCCC2)c(OC)c1` [BUFLOMEDIL], the half-maximal activity concentration (AC50) in assay [1], in assay [9], in assay [2], in assay [3], in assay [4] and in assay [5] was over 30 µM throughout. Further, the half-maximal activity concentration (AC50) is 20 µM in assay [6] and over 30 µM in [7].
As to `CS(=O)(=O)OCCCCOS(C)(=O)=O` [BUSULFAN], the concentration at half-maximal activity (AC50) in [1], in [9], in [2], in assay [3], in [4] and in [5] was over 30 µM each time. The AC50 in assay [6] and in [7] was over 30 µM throughout.
For `CCCCCCNC(=O)n1cc(F)c(=O)[nH]c1=O` [CARMOFUR], the half-maximal activity concentration (AC50) in [1], in [2], in assay [3], in assay [4], in [5] and in assay [6] was over 30 µM each time. This molecule also returned a half-maximal activity concentration (AC50) in [7] of over 30 µM.
Turning to `CC(C)(C)NCC(O)c1cc(Cl)c(N)c(Cl)c1` (centres undefined) [CLENBUTEROL], the half-maximal activity concentration (AC50) in assay [1], in [9], in assay [2], in [3], in assay [4] and in assay [5] was over 30 µM each time. For the same molecule, the AC50 in assay [6] and in assay [7] was over 30 µM throughout.
For `COc1cccc2c1C(=O)c1c(O)c3c(c(O)c1C2=O)C[C@@](O)(C(C)=O)C[C@@H]3O[C@H]1C[C@H](N)[C@H](O)[C@H](C)O1` [DAUNORUBICIN], the half-maximal activity concentration (AC50) in assay [1] is over 30 µM; in [2], over 30 µM; in assay [3], over 10 µM; in [4], over 30 µM; in assay [5], 14.1 µM; in assay [8], 3.6 µM. The concentration at half-maximal activity (AC50) in assay [6] was 18 µM; in assay [7] it was 12.8 µM.
Take `CC(=O)OCC(CCn1cnc2cnc(N)nc21)COC(C)=O` [FAMCICLOVIR]: the concentration at half-maximal activity (AC50) in assay [1], in [9], in assay [2], in [3], in [4] and in assay [5] was over 30 µM each time. In addition, the results for the AC50 in assay [8], in assay [6] and in assay [7] were over 10 µM, over 10 µM and over 30 µM, respectively.
`Nc1ccn([C@@H]2O[C@H](CO)[C@@H](O)C2(F)F)c(=O)n1` [GEMCITABINE]: the AC50 in [1], in [9], in assay [2], in assay [3], in assay [4] and in [5] was over 30 µM in each case. The AC50 in assay [8] is over 30 µM; in assay [6], over 10 µM; in assay [7], over 30 µM.
Consider `Nc1nc2c(c(=O)[nH]1)N(C=O)C(CNc1ccc(C(=O)N[C@@H](CCC(=O)O)C(=O)O)cc1)CN2` (some centres undefined) [LEUCOVORIN], for which the concentration at half-maximal activity (AC50) in assay [1], in [9], in assay [2], in assay [3], in assay [4] and in assay [5] was over 30 µM in each case. For the same molecule, the AC50 in assay [6] and in assay [7] was over 30 µM in each case.
Turning to `CCn1cc(C(=O)O)c(=O)c2cc(F)c(N3CCN(C)CC3)cc21` [PEFLOXACIN], the AC50 in assay [1], in assay [9], in assay [2], in assay [3], in assay [4] and in [5] was over 30 µM throughout. Moreover, the AC50 in assay [6] and in assay [7] was over 30 µM throughout.
For `C[n+]1ccccc1/C=N/O` [PRALIDOXIME], the half-maximal activity concentration (AC50) in assay [9], in assay [5] and in assay [7] was over 30 µM throughout.
For the molecule `CCCNC(C)C(=O)Nc1ccccc1C` (centres undefined) [PRILOCAINE], the half-maximal activity concentration (AC50) in assay [1], in [9], in assay [2], in assay [3], in assay [4] and in assay [5] was over 30 µM in each case. Also, the AC50 in [6] and in [7] was over 30 µM in each case.
In the case of `CC(C)(C)NC[C@H](O)COc1nsnc1N1CCOCC1` [TIMOLOL], the concentration at half-maximal activity (AC50) in [1], in assay [9], in [2], in assay [3], in assay [4] and in assay [5] was over 30 µM in each case. Also, the AC50 in assay [6] and in assay [7] was over 30 µM each time.
Consider `Cc1cccc(N(C)C(=S)Oc2ccc3ccccc3c2)c1` [TOLNAFTATE], for which the AC50 in [1] is over 10 µM; in [3], over 10 µM; in assay [4] it was over 10 µM; in assay [5], over 30 µM; in assay [7], over 30 µM.
As for `CN1[C@@H]2CC[C@H]1C[C@@H](OC(=O)c1c[nH]c3ccccc13)C2` [TROPISETRON], the half-maximal activity concentration (AC50) in assay [1], in [9], in assay [2], in assay [3], in assay [4] and in assay [5] was over 30 µM each time. Moreover, the AC50 in [6] was over 30 µM.
In the case of `COc1ccc(C(CN(C)C)C2(O)CCCCC2)cc1` (centres undefined) [VENLAFAXINE], the AC50 was over 30 µM in [1]; over 30 µM in [2]; over 30 µM in assay [3]; over 30 µM in [4]; over 30 µM in assay [5]; 6.8 µM in assay [6]. Moreover, the AC50 in [7] was over 30 µM.
